Results: US5260275A, “Hypoglycemics” (Amylin Pharmaceuticals, Inc., priority 1990, dated 1993)

Legend:
[1] = test system: isolated rat islets of Langerhans; experiment: Glucose-stimulated insulin secretion from isolated rat islets of Langerhans; assay type: cell-based; settings: substance 650 nmol/L; glucose 10 mmol/L
Experimental: The following experiments illustrate the fact that subpeptides of amylin can act to reduce the amount of insulin produced by isolated islets of Langerhans in response to a standard glucose challenge. Similar results have been obtained using whole amylin. All experiments were performed by known methods used in experimental practice. See, e.g., Lacey P. E., and Kostianovsky M., Method for the Isolation of Intact Islets of Lanaerhans from the Rat Pancreas. Diabetes 1967; 16:35-39.
Briefly, rats were killed, and islets of Langerhans were isolated from their pancreases. Experiments were performed either with freshly isolated islets or after overnight incubation of islets (23 h) in standard culture medium and conditions at 37° C. Synthetic amylin peptide 27-37 or synthetic calcitonin gene related peptide (CGRP) was dissolved in a 1.0 mmol/L citric acid/sodium citrate buffer, pH 3.0, and the concentration of the amylin 27-37 was verified by quantitative amino acid analysis. See, e.g., Cooper G. J. S. et al., Proc Natl Acad Sci USA 1987; 84:8628-8632. […] Stimulation of islets was carried out at the standard stimulatory glucose concentration of 10 mmol/L.
Production of insulin is expressed as μU/islet/h. All experiments were performed with five replicates per point. The integrity of the islet response was assessed by comparing the responses after stimulation of different aliquots of islets by two and ten mmol/L glucose, respectively, and the strength of the inhibitory response was judged against that induced by 1 μg/ml (650 nmol/L) somatostatin. Somatostatin is a 14 amino acid peptide which is a known, potent inhibitor of the insulin secretory response of islet B-cells to glucose. Arimura A. Biomed res1981; 2:233-257. […] Petterson M., Ahren B., Bottcher G., Sundler F., Endocrinology 1986; 119:865-869.
The results are shown in TABLE 5 below and all results are expressed as standard error of the mean (s.e.m.). The significance of differences between the means of groups is assessed by the t-test. The result of stimulation by 10 mmol/L glucose is compared with the results of stimulation at 2 mmol/L glucose. In all other experimental conditions, the significance of the inhibitory effect is measured against the effect of 10 mmol/L glucose alone.

HIT T-15 cells [2] = experiment: Amylin/insulin (A/I) secretion ratio of HIT T-15 cells; assay type: cell-based, hamster
Experimental: (§1) HIT T-15 cells (HIT cells; American Type Tissue Collection, Rockville, Md.) were subcultured weekly in Ham's F-12 medium (Irvine Scientific, Santa Ana, Calif.) containing 10% horse serum (Gemini Bioproducts, Calabasas, Calif.), 2.5% fetal bovine serum (FBS; Gemini), 2 mM L-glutamine, 10^5 IU penicillin G/1, 100 mg streptomycin/1 and 10.0 mM glucose. Cells were maintained at 37° C. and 5% C02/ 95% humidified air and medium was replaced every 2 to 3 days. All experiments were performed with cells from passages 62 to 71.
Five days before each secretion study, cells were subcultured at 0.26×10^6 cells per 0.8 ml medium per well in 24-well tissue culture plates. Medium was replaced on day 3. On day 5 cells were washed twice with […] 1.0 ml Krebs-Ringer buffer (KRB) containing 119 mM NaCl, 4.74 mM KCl, 2.54 mM CaCl2, 1.19 mM KH2 PO4, 25 mM NaHCO3, 10 mM HEPES and 0.1% protease-free bovine serum albumin (Cohn fraction V; Sigma Chemical Co., St. Louis Mo.) at pH 7.4. After washing 1.0 ml KRB was added and plates were incubated for 30 minutes at 37° C. in equilibrium with air. […] After a 60 minute incubation with test substance, supernatants were centrifuged to remove cell debris, then stored at -20° C. Supernatants were analyzed for insulin and amylin content by radioimmunoassay within one week of collection. Three wells per plate were trypsinized and cells per well were quantitated using a Coulter Counter (Model Zf, Coulter Electronics, Hialeah, Fla.). Data are expressed as the percentage change in pmoles of hormone released/10^6 cells, relative to controls (absence of test substance) or as the moles of amylin released/mole of insulin/10^6 cells/hour (A/I ratio).
Immunoreactive insulin content in supernatants was measured using a commercial radioimmunoassay (IM.78; Amersham, Arlington Heights, Ill.). Human insulin standards were prepared in KRB. […] The radioimmunoassay for immunoreactive amylin was as described in Example 7 above.

HIT T-15 cells [3] = experiment: Amylin release from HIT T-15 cells; assay type: cell-based, hamster
Experimental: as §1, with “MD; R. F. Santerre, et al. (1981) Proc. Nat. Acad. Sci. USA 78, 4339-4343.)” for “Md.)”, “L-glutamine,” for “L-glutamine, 10^5 IU penicillin G/1, 100 mg streptomycin/1”, “CO2 /” for “C02/”, “66” for “62”
(§2) Amylin and insulin secretion were measured using reagents of analytical grade unless otherwise indicated. The secretion medium was a Krebs-Ringer buffer (KRB) containing 119 mM NaCl, 4.74 mM KCl, 2,54 mM CaCl2, 1.19 mM MgSO4, 1.19 mM KH2 PO4, 25 mM NaHCO3, 10 mM HEPES and 0.1% protease-free bovine serum albumin (Cohn fraction V; Sigma Chemical Co., St. Louis Mo.) at pH 7.4. Glibenclamide (Sigma) was initially dissolved in ethanol (50 mg/ml) then diluted to working concentrations in KRB. […] Tolbutamide (Sigma) was initially dissolved in dimethylsulfoxide (50 mg/ml). […] Metformin (Sigma) was diluted in KRB.
(§3) Five days before each secretion study cells were subcultured at 0.26×10^6 cells/0.8 ml medium/well in 24-well tissue culture plates (Corning Glass Works, Corning N.Y.). Medium was replaced on day 3. On day 5 cells were washed twice with 1.0 ml KRB then incubated in 1.0 ml KRB (30 minutes, 37° C.) in equilibrium with air. Cells were washed twice more prior to addition of 0.5 ml KRB containing the indicated concentrations of glucose, metformin, tolbutamide and glibenclamide. After a 60 minute incubation with test substance or substances, supernatants were centrifuged (5 minutes, 500×g, 5° C.; GPKR centrifuge, Beckman Instruments, Inc., Palo Alto, Calif.) to remove cell debris, then stored in polypropylene micro test tubes (Brinkman Instrument Co., Westbury, N.Y.) at -20° C. until analyzed by radioimmunoassay. Supernatants were analyzed for insulin and amylin content within one week of collection. Three wells per plate were randomly selected for cell quantitation. Cells were incubated with 75 μg trypsin and 30 μg EDTA in 150 μl normal saline (8 minutes, 37° C.), then counted on a Coulter Counter (Model Zf, Coulter Electronics, Hialeah, Fla.).
(§4) Immunoreactive insulin content in supernatants was measured using a commercial radioimmunoassay (IM.78; Amersham, Arlington Heights, Ill.). […] The radioimmunoassay for immunoreactive amylin was as follows. Assay diluent was phosphate-buffered saline (PBS; 137 mM NaCl, 2.68 mM KCl, 1.47 mM KH2 PO4, 6.65 mM Na2 HPO4) containing 0.1% Triton-X 100 (v/v), 0.01% NaN3 (w/v), and 0.1% gelatin (v/v; teleostean, 45% aqueous solution, Sigma) at pH 7.4. All incubations were performed at 4° C. ^125 I-[Tyr 37]-human synthetic amylin tracer was iodinated by the chloramine-T method and purified on a C18 Sep-Pak (Waters Associates, Milford, Mass.). Specific activity was approximately 500 μCi/μg.
Standards and unknowns were run in triplicate or duplicate respectively. After an 18 hour incubation, 100 μl of tracer containing 20,000 dpm was added and samples were incubated an additional 18 hours. To ensure complete immunoprecipitation of amylin:antibody complexes, 100 μl of rabbit gamma globulin (0.35 mg/ml, Scantibodies Laboratory, Santee, Calif.) and 100 μl of goat anti-rabbit gamma globulin (0.50 mg/ml, purified grade; Scantibodies) were added. After a 15 minute incubation, 1.0 ml 2% polyethylene glycol (w/v. MW 8,000; Sigma) in assay buffer was added and samples were centrifuged (30 minutes, 1500×g, 5° C.). Samples were decanted and pellets were counted on a gamma counter (model 1277; LKB Wallac, Turku, Finland).
Data in FIGS. 3 and 4 are shown as the mean±S.D. of 4 replicate samples.

HIT T-15 cells [4] = experiment: Insulin release from HIT T-15 cells; assay type: cell-based, hamster
Experimental: as §1, with “MD; R. F. Santerre, et al. (1981) Proc. Nat. Acad. Sci. USA 78, 4339-4343.)” for “Md.)”, “L-glutamine,” for “L-glutamine, 10^5 IU penicillin G/1, 100 mg streptomycin/1”, “CO2 /” for “C02/”, “66” for “62”
as §2, §3, §4
Data in FIGS. 3 and 4 are shown as the mean±S.D. of 4 replicate samples. An unpaired Student's t-test was used to compare secretion in the absence and presence of hypoglycemic agent (Statview 512+ program; Brain Power, Inc., Calabasas, Calif.).
as §1

[5] = target: T1, insulin receptor on red blood cells (Homo sapiens, UniProt P06213); experiment: Displacement of insulin from its receptor on red blood cells; assay type: binding
T1 construct: endogenous in cells; host or cells: red blood cells

[6] = cells challenged with 10 mM glucose plus 15 mM arginine
[7] = 10 mM glucose or 15 mM arginine alone or in combination, n=3

## C[C@H](N)C(=O)NCC(=O)N[C@H]1CSSC[C@@H](C(=O)O)NC(=O)[C@H](CO)NC(=O)[C@H]([C@@H](C)O)NC(=O)[C@H](Cc2ccccc2)NC(=O)[C@H]([C@@H](C)O)NC(=O)[C@H](CCCCN)NC(=O)[C@H](Cc2c[nH]c3ccccc23)NC(=O)[C@H](Cc2ccccc2)NC(=O)[C@H](Cc2ccccc2)NC(=O)[C@H](CC(N)=O)NC(=O)[C@H](CCCCN)NC1=O [Somatostatin]
[1]
  Insulin production: 44 μU/islet/hr
  Relative insulin secretion inhibition (percentage by which insulin production is reduced from control): 45%
HIT T-15 cells [2]; over the somatostatin concentration range tested, 10 mM glucose plus 15 mM arginine
  A/I ratio: 0.36±0.02
HIT T-15 cells [3]; [6]
  Effect on amylin release (in words): suppressed both amylin and insulin release
HIT T-15 cells [4]; [6]
  Effect on insulin release (in words): suppressed both amylin and insulin release

## N=C(N)NCCC[C@H](N)C(=O)O [arginine]
HIT T-15 cells [2]; [7]
  A/I ratio: 0.41±0.05
HIT T-15 cells [2]; over the arginine concentration range tested
  Mean A/I ratio: 0.44±0.02
HIT T-15 cells [3]; increasing arginine, 60 min
  Effect on amylin secretion (in words): stimulated amylin and insulin secretion in a dose-dependent manner
HIT T-15 cells [4]; increasing arginine, 60 min
  Effect on insulin secretion (in words): stimulated amylin and insulin secretion in a dose-dependent manner

## O=C[C@H](O)[C@@H](O)[C@H](O)[C@H](O)CO [glucose]
HIT T-15 cells [2]; [7]
  A/I ratio: 0.32±0.01
HIT T-15 cells [3]; 10 mM glucose, control conditions
  Increase in secretion of amylin: 2.5 to 4 fold
HIT T-15 cells [3]; 60 min incubation
  Concentration of maximum amylin secretion: 20 mM
HIT T-15 cells [3]; Mesocricetus auratus, HIT-T15, 1 h, 60 min incubation, read-out: Half-maximal response (EC50), amylin secretion
  EC50: ~2 mM
HIT T-15 cells [4]; 10 mM glucose, control (no drug) conditions
  Increase in insulin secretion: 4 to 5 fold
HIT T-15 cells [4]; 60 min incubation
  Concentration of maximum insulin secretion: 20 mM
HIT T-15 cells [4]; Mesocricetus auratus, HIT-T15, 1 h, 60 min incubation, read-out: Half-maximal response (EC50), insulin secretion
  EC50: ~2 mM

## amylin: 37-residue peptide hormone from pancreatic amyloid; preparation not specified at this place (KCNTATCATQRLANFLVHSSNNFGAILSSTNVGSNTY; Islet amyloid polypeptide; UniProt P10997 34-70, looked up)
[5]
  Displacement of insulin from its receptor (in words): not capable of significantly displacing insulin
